Test system: term pregnant, nulliparous women with an unripe cervix
Assay: Clinical phase II trial PPL17 (Parts A and B), subcutaneous tafoxiparin vs placebo
Format: in vivo, human
Settings: for women achieving spontaneous onset of labor (FIG. 1): placebo 28.7%; for number of subjects (women) that reach spontaneous onset of labor / subjects (women) that reach spontaneous onset of labor, % of n: cumulative
Experimental: A clinical phase II trial is performed as a randomized, double-blind, placebo-controlled, parallel-group proof of concept study (Part A) with a conditional dose finding follow up study (Part B) to evaluate the efficacy, safety, tolerability and dose response of subcutaneously administered tafoxiparin as a supplement to induction therapy in term pregnant, nulliparous women with an unripe cervix. The study is performed in Sweden and Finland (PPL17), and an EMA (European Medicines Agency) description of the study can be found on the EU Clinical Trials Register web (www.clinicaltrialsregister.eu/ctr-search/search?query=PPL17).
A total of 170 term pregnant women are randomized to receive either 300 mg of tafoxiparin, or corresponding placebo (vehicle), administered subcutaneously every 24±3 hours and up to a total of 7 doses, or until partus (Part A).
In the dose finding follow up study (Part B), a total of 164 term pregnant women are randomized to receive either 75 or 150 mg of tafoxiparin administered subcutaneously every 24±3 hours […] and up to a total of 7 doses, or until partus.
To assess the efficacy of tafoxiparin on cervical ripening/cervical ripening rate, during and up to the first seven days of treatment, measured by Bishop score. All women must be examined to check the cervical state before enrollment.
Tafoxiparin/Placebo is supplied by Dilafor AB to the site as kits designed to constitute 300 mg of tafoxiparin or placebo for daily administration. Apart from the active substance, each ml of study drug will constitute 0.015 M phosphate buffer. The study medication kit for each patient will contain 8 doses consisting of 2 vials containing a minimum extractable volume of 1.6 ml of 150 mg/ml of tafoxiparin or placebo. One dose is a reserve dose in case a dose is rendered unusable. The investigational product should be administered subcutaneously every 24±3 hours by the site staff for up to 7 doses, or until partus. At each dosing time 1.0 ml of the drug will be extracted from each of the 2 vials and injected as separate s.c. injections in the abdominal or hip region.
Tafoxiparin/Placebo is supplied by Dilafor AB to the site as kits designed to constitute 75 or 150 mg of tafoxiparin for daily administration. Apart from the active substance, each ml of study drug will constitute 0.015 M phosphate buffer. The study medication kit for each patient will contain 8 doses consisting of 2 vials for each injection occasion containing a minimum extractable volume of 1.6 ml of 150 mg/ml of tafoxiparin or placebo. For subjects receiving 75 mg of tafoxiparin, one vial will contain active substance and one containing placebo. For subjects receiving 150 mg of tafoxiparin, both vials will contain active substance. One dose is a reserve dose in case a dose is rendered unusable. The investigational product should be administered subcutaneously every 24±3 hours by the site staff for up to 7 doses, or until partus. At each dosing time, 0.5 ml of the drug will be extracted from each of the 2 vials and injected as separate s.c. injections in the abdominal or hip region.
If the subject is found to be eligible for the study, they will be randomized to study treatment, i.e. 300 mg of tafoxiparin or corresponding placebo daily (Part A), or 75 or 150 mg daily (Part B).
The study medication will be administered subcutaneously in the abdominal or hip region for up to a total of 7 doses or until labor induction or spontaneous onset of labor. If the cervix is still unripe after 7 doses of IMP, the patient is given cervical balloon catheter as a mean of labor induction.
Subjects who enter into spontaneous onset of labor after 1-7 doses of IMP should be managed according to clinical routines.
Subjects who are given 4-7 doses without entering into spontaneous onset of labor, but with a ripe cervix (Bishop Score ≥6), should be induced into labor by amniotomy and oxytocin treatment, but not before 4 treatment doses have been given. […]

tafoxiparin
women achieving spontaneous onset of labor (FIG. 1) (75 mg s.c. once daily up to 7 doses, 33 women of 82, p-value 0.102): 40.2% | women reaching spontaneous onset of labor with uncomplicated delivery (75 mg, 22 of the 29 women, placebo 54.5%): 75.9% | number of subjects (women) that reach spontaneous onset of labor (75 mg, Study day 1, n = 33): 0 | subjects (women) that reach spontaneous onset of labor, % of n (75 mg, Study day 1, n = 33): (0%) | number of subjects (women) that reach spontaneous onset of labor (75 mg, Study day 2, n = 33): 3 | subjects (women) that reach spontaneous onset of labor, % of n (75 mg, Study day 2, n = 33): (9%) | number of subjects (women) that reach spontaneous onset of labor (75 mg, Study day 3, n = 33): 6 | subjects (women) that reach spontaneous onset of labor, % of n (75 mg, Study day 3, n = 33): (18%) | number of subjects (women) that reach spontaneous onset of labor (75 mg, Study day 4, n = 33): 11 | subjects (women) that reach spontaneous onset of labor, % of n (75 mg, Study day 4, n = 33): (33%) | number of subjects (women) that reach spontaneous onset of labor (75 mg, Study day 5, n = 33): 22 | subjects (women) that reach spontaneous onset of labor, % of n (75 mg, Study day 5, n = 33): (67%) | number of subjects (women) that reach spontaneous onset of labor (75 mg, Study day 6, n = 33): 25 | subjects (women) that reach spontaneous onset of labor, % of n (75 mg, Study day 6, n = 33): (76%) | number of subjects (women) that reach spontaneous onset of labor (75 mg, Study day 7, n = 33): 32 | subjects (women) that reach spontaneous onset of labor, % of n (75 mg, Study day 7, n = 33): (97%) | number of subjects (women) that reach spontaneous onset of labor (75 mg, Study day 8, n = 33): 33 | subjects (women) that reach spontaneous onset of labor, % of n (75 mg, Study day 8, n = 33): (100%) | Fetal distress as indication for operative delivery (ODFD), number of women (75 mg, n = 83): 16 | Labor induced with PGE-1, number of women (75 mg, n = 83): 7 | Labor induced with amniotomy, number of women (75 mg, n = 83): 46 | Labor induced with oxytocin, number of women (75 mg, n = 83): 34 | Labor induced, number of women (75 mg, n = 83): 48 | Labor induction with Balloon catheter, number of women (75 mg, n = 83): 35 | Number of patients with operative delivery (75 mg, n = 83): 32 | Labor induced with PGE-1, % of women (75 mg, n = 83, placebo 10.2%): 8.4% | Fetal distress as indication for operative delivery (ODFD), % of women (75 mg, n = 83, placebo 22.7%): 19.3% | patients with operative delivery, % (75 mg, n = 83, placebo 45.5%): 38.6% | Labor induced with oxytocin, % of women (75 mg, n = 83, placebo 54.5%): 41.0% | Labor induced with amniotomy, % of women (75 mg, n = 83, placebo 56.8%): 55.4% | Labor induction with Balloon catheter, % of women (75 mg, n = 83, placebo 58.0%): 42.2% | Labor induced, % of women (75 mg, n = 83, placebo 70.5%): 57.8% | women needing instrumental delivery (FIG. 4, vaginal mode of partus) (75 mg, women with spontaneous onset of labor, 7 of the 29 women, p-value=0.181, placebo 45.5%): 24.1% | women needing instrumental delivery or caesarian section to reach partus (FIG. 5) (75 mg, women with spontaneous onset of labor, 11 of 33 women, placebo 52%): 33.3% | women reaching partus by vaginal delivery with no need for instrumental delivery nor caesarian section (FIG. 5) (75 mg, women with spontaneous onset of labor, 22 of 33 women, placebo 48%): 66.7% | women achieving spontaneous onset of labor (FIG. 1) (150 mg s.c. once daily up to 7 doses, 36 women of 85, p-value 0.039): 42.4% | women reaching spontaneous onset of labor with uncomplicated delivery (150 mg, 23 of the 32 women, placebo 54.5%): 71.9% | number of subjects (women) that reach spontaneous onset of labor (150 mg, Study day 1, n = 36): 0 | subjects (women) that reach spontaneous onset of labor, % of n (150 mg, Study day 1, n = 36): (0%) | number of subjects (women) that reach spontaneous onset of labor (150 mg, Study day 2, n = 36): 4 | subjects (women) that reach spontaneous onset of labor, % of n (150 mg, Study day 2, n = 36): (11%) | number of subjects (women) that reach spontaneous onset of labor (150 mg, Study day 3, n = 36): 15 | subjects (women) that reach spontaneous onset of labor, % of n (150 mg, Study day 3, n = 36): (42%) | number of subjects (women) that reach spontaneous onset of labor (150 mg, Study day 4, n = 36): 19 | subjects (women) that reach spontaneous onset of labor, % of n (150 mg, Study day 4, n = 36): (53%) | number of subjects (women) that reach spontaneous onset of labor (150 mg, Study day 5, n = 36): 26 | subjects (women) that reach spontaneous onset of labor, % of n (150 mg, Study day 5, n = 36): (72%) | number of subjects (women) that reach spontaneous onset of labor (150 mg, Study day 6, n = 36): 30 | subjects (women) that reach spontaneous onset of labor, % of n (150 mg, Study day 6, n = 36): (83%) | number of subjects (women) that reach spontaneous onset of labor (150 mg, Study day 7, n = 36): 34 | subjects (women) that reach spontaneous onset of labor, % of n (150 mg, Study day 7, n = 36): (94%) | number of subjects (women) that reach spontaneous onset of labor (150 mg, Study day 8, n = 36): 35 | subjects (women) that reach spontaneous onset of labor, % of n (150 mg, Study day 8, n = 36): (97%) | number of subjects (women) that reach spontaneous onset of labor (150 mg, Study day 9, n = 36): 36 | subjects (women) that reach spontaneous onset of labor, % of n (150 mg, Study day 9, n = 36): (100%) | Fetal distress as indication for operative delivery (ODFD), number of women (150 mg, n = 85): 20 | Labor induced with PGE-1, number of women (150 mg, n = 85): 7 | Labor induced with amniotomy, number of women (150 mg, n = 85): 39

From patent US12611423B2, “Medical use of tafoxiparin” (DILAFOR AB, priority 2022, dated 2026)
